Measured values as given in patent US20250161299A1, “ORAL PCLX-001 IN THE TREATMENT OF HUMAN CANCER” (PACYLEX PHARMACEUTICALS INC., priority 2022, published 2025).
“Also recorded” adds a separate entry of the source. Read-outs that look alike come from different tables or passages of the source.

Assays:
kinases (KINOMEscan) = conditions: KINOMEscan (Fremont, CA, USA); cited from earlier work
[1] = system: Prostate cultured human cancer cells; conditions: second panel, mean among sensitive cell lines, read-out: IC50 mean +/− SD; cited from earlier work
implanted human tumors = conditions: cited from earlier work
[2] = system: Lung cultured human cancer cells; conditions: mean among sensitive cell lines, cited from earlier work; for IC50: read-out: IC50 mean +/− SD
[3] = system: Brain cultured human cancer cells; conditions: second panel, mean among sensitive cell lines, read-out: IC50 mean +/− SD; cited from earlier work
[4] = system: Stomach cultured human cancer cells; conditions: second panel, mean among sensitive cell lines, read-out: IC50 mean +/− SD; cited from earlier work
[5] = Oral bioavailability in animal models; type: in vivo
[6] = system: cancer cells (hematologic, lymphoma and solid cancer cell lines); conditions: tissue culture; hematological and solid cancer cell lines; cited from earlier work
[7] = system: Neuroblastoma cultured human cancer cells; conditions: second panel, mean among sensitive cell lines, read-out: IC50 mean +/− SD; cited from earlier work
[8] = Phase I trial toxicity assessment (dose limiting toxicities, CTCAE version 5.0); type: in vivo, human; conditions: for hematopoietic profile and biochemistry / protocol defined dose limiting toxicities: 20 mg oral daily
Procedure: The subjects were assessed for toxicity using daily diary entries, clinical assessments at baseline, day 8, day 15, day 22, and day 28. Dose limiting toxicities were DLTs defined as the following cycle 1 CTCAE version 5.0 adverse events: Gr 4 platelets, Gr≥3 platelets with bleeding and/or transfusions, Gr 4 ANC for ≥7 days, Gr≥3 febrile neutropenia, and Gr≥3 non-hematological toxicity.

[9] = Animal (GLP) non-clinical safety testing; type: in vivo
Excerpt: PCLX-001 (FIG. 1) is a potent, small molecule inhibitor of human NMT1 and NMT2 proteins.

[10] = system: Ovary cultured human cancer cells; conditions: second panel, mean among sensitive cell lines, read-out: IC50 mean +/− SD; cited from earlier work
[11] = system: Sarcoma cultured human cancer cells; conditions: second panel, mean among sensitive cell lines, read-out: IC50 mean +/− SD; cited from earlier work
[12] = Phase I trial plasma pharmacokinetics, two-compartment model (PK Solver 2.0); type: in vivo; conditions: human, oral, 20 mg
Procedure: A different pharmacokinetic modeling program was used in the publication PK Solver 2.0 freeware (https://www.boomer.org/boomer/software/pksolver.zip; accessed 26 Nov. 2021) was used to determine the single dose pharmacokinetic parameters using a two-compartment model. […] As noted above, non-compartmental pharmacokinetic analysis was performed using Phoenix WinNonlin 8.3 using trapezoidal rule and linear up log down methodology. WinNonlin was allowed to pick optimal terminal phases.
Pharmacokinetic analysis was conducted as described above. […] These parameters are all supportive of a single daily oral dosing schedule for PCLX-001.

[13] = system: Leukemia cultured human cancer cells; conditions: mean among sensitive cell lines, cited from earlier work
[14] = Allometric scaling from animal maximally tolerated doses to predict human daily oral MTD (www.truedose.app)
Procedure: The allometric scaling is based on toxicity, and the toxicity is that which establishes the Maximally Tolerated Dose (MTD) in animal studies. In mice, one toxicity study established the MTD to be 35 mg/kg. […]. […] It was not expected that, as shown herein, doses markedly lower than 180 mg daily in humans would have anticancer effects.
Allometric scaling is a means by which PK results from animal studies can be used to predict human drug exposure for a range of drug doses. In this case, allometric scaling was performed using representative values from the PK studies with daily oral PCLX-001 administration for 14 or 28 days in non-human species. These inputs were analyzed with www.truedose.app to predict the Maximally Tolerated Dose we would see in this phase one clinical trial (FIG. 2). […]

[15] = first panel, read-out: EC50 mean +/− SD
[16] = Table 1B third line, Patient 115-002-001, Day 15 as printed

## Cc1c(NS(=O)(=O)c2c(Cl)cc(-c3ccnc(N4CCNCC4)c3)cc2Cl)c(CC(C)C)nn1C [PCLX-001, 2,6-dichloro-N-(3-isobutyl-1,5-dimethyl-1H-pyrazol-4-yl)-4-(2-(piperazin-1-yl)pyridin-4-yl)benzene sulfonamide]
Kinases (KINOMEscan)
  off target kinase inhibition: no significant off target kinase inhibition
[1]
  IC50: 85.4 ± 59.2 nM
Implanted human tumors; 10 mg/kg or lower
  anticancer activity in mice bearing human cancers: no evident anticancer activity
Implanted human tumors; 35 mg/kg and higher doses
  anti-cancer effects in mice with implanted human tumors: had anti-cancer effects
Implanted human tumors; preclinical studies
  response of human cancers grown in immunodeficient mice: complete remissions
[2]; [15]
  EC50: 151 ± 88.2 nM
[2]; second panel
  IC50: 184 ± 82.8 nM
[2]; third panel
  IC50: 154 ± 111 nM
[3]
  IC50: 153 ± 63.5 nM
[4]
  IC50: 120 ± 48.2 nM
[5]
  oral bioavailability: complete oral bioavailability
[6]
  inhibition of cancer cell growth in vitro: inhibition of cell growth; also recorded: markedly inhibited
[7]
  IC50: 230 ± 183 nM
[8]; Patient 1
  hematopoietic profile and biochemistry: remained normal; also recorded: no evidence of toxicity
[8]; Patient 1, 28 day cycle
  protocol defined dose limiting toxicities: did not experience any dose limiting toxicities; also recorded: no protocol defined dose limiting toxicities
[8]; Patient 2
  hematopoietic profile and biochemistry: remained normal
  protocol defined dose limiting toxicities: no protocol defined dose limiting toxicities
[8]; Patient 3, daily PCLX-001, two 28 day cycles
  drug related toxicities: No drug related toxicities were identified
[9]
  cardiac conduction: no cardiac conduction issues
[10]
  IC50: 76.7 ± 7.6 nM
[11]
  IC50: 198 ± 134 nM
[12]; Table 1B fourth line, Patient 115-002-001, Day 15
  AUC(0-inf): 2640 ng·h/mL
[12]; [16]
  AUC(0-inf): 2360 ng·h/mL
  AUC(0-t): 1700 ng·h/mL
  Cmax: 278 ng/mL
  half-life: 16.4 h
[13]; [15]
  EC50: 97.9 ± 81.3 nM
[13]; second panel, read-out: IC50 mean +/− SD
  IC50: 189 ± 87.8 nM
[14]; scaled from dog MTD
  Allometric prediction of human MTD: 137 mg mg/70 kg
[14]; scaled from mouse MTD
  Allometric prediction of human MTD: 180 mg mg/70 kg
[14]; scaled from rat MTD
  Allometric prediction of human MTD: 1300 mg mg/70 kg
